Results on one compound are retold here after patent US20080207750A1, “Use of N-Chlorotaurine for Treatment of Oozing Tissue Deficiencies” (Pathogenics LLC, priority 2002, published 2008).

The test system of series [1] is open leg ulcer with fibrous coating. The series can be described thus: Treatment of open leg ulcer with fibrous coating with wound dressing soaked with aqueous 1% NCT solution. Type of series: in vivo, human. The following applies: Example 3: person, burn accident; dressing soaked with aqueous 1% NCT two times daily. The procedure:
A human patient suffering from an open leg ulcer with fibrous coating caused by a burn accident was treated two times daily with wound dressing soaked with aqueous 1% NCT solution. […] Microbiological cultures of swabs before and after therapy were sterile.

The next series concerns outer ear canal. The series is described as follows: Pilot study (open phase IIa): irrigation of the external auditory canal with 1% NCT after tympanoplasty. Type of series: in vivo, human. The following applies: 12 patients. The procedure: Procedures: Local irrigations of the external auditory canal with 3 ml of 1% N-chlorotaurine solution were performed once daily until the canal was dry.
(§1) Reagents: Pure NCT as a crystalline sodium salt was dissolved in sterile distilled water to a concentration of 1% (55 mM). Purity was verified by iodometric titration and spectrophotometry. […] Solutions were stored at 2-4° C., where they are stable for 1 year, and allowed to reach room temperature before application to the patients.
Study Design: An open phase IIa study was performed in 12 patients after tympanoplasty. They received a single-shot antibiotic therapy with 2 g Spizef (cefotiam) i.v. perioperatively.
All subjects were treated with 1% N-chlorotaurine.
Subjects: The study population included 6 female and 6 male human patients, ranging in age from 32 to 66 years (median 48,1 years). Inclusion criteria was status post tympanoplasty. Exclusion criteria included topical treatment with other agents, systemic application of antibiotics or corticoids, pregnancy, and simultaneous participation in another study. No patients had to be withdrawn after inclusion.
Treatment and Time Course: After removing the ear-tamponade, which remained in place for 2 to 3 weeks postoperatively, 3 ml of the 1% aqueous NCT solution was applied once daily to the outer ear canal. The endpoint of the treatment was defined as a completely dry canal, corresponding to a clinical score of zero (see below for scoring).
Evaluation and Statistical Analysis: The primary criterion for the judgement of the status of the external meatus was a six-scale clinical score (0-5) based on visual observation via ear microscopy (zero=dry outer ear canal; 5=moist outer ear canal with inflammation).
The second criterion was subjective pain, ascertained by a visual analogue scale.
Clinical examination of the outer ear canal was performed daily for detection of moisture, signs of infection, and judgement of epithelisation of the neo-tympanon.
A completely dry external meatus (score zero) was considered as the endpoint criterion for the termination of the study.
Before and at the end of the study an audiogram was performed in all patients.
Moisture and inflammation of the external auditory canal during and after irrigation with NCT were compared to those before treatment using the Wilcoxon test. P-values<0.05 were considered to indicate statistical significance. Due to the limited number of patients no corrections for multiple comparisons were applied.

A short description of series [2]: Storage stability of aqueous NCT solutions. Format: physicochemical. The following applies: 1% (55 mM) aqueous solution stored at 2-4° C. The procedure:
as §1

In another series the test system is oozing ear channel. The series can be described thus: Treatment of the oozing ear channel after tympanoplasty with aqueous 1% NCT solution (case reports). Type of series: in vivo, human. Conditions: for time until oozing ceased / complete epithelization achieved earlier than by the conventional treatment with fuchsine / incorporation of the temporal fascia: tympanoplasty. From the text: Rinsing the ear channel with NCT solution provokes in general a drying of the ear channel and the tympanoplastic within 1-2 days.
A human patient with a traumatic perforation of the tympanic membrane was provided with a tympanoplasty. After removing incrustations and granulation tissue, the destroyed tympanic membrane was excised and substituted by a fascia temporalis. After taking away the tamponade, the microbiological culture of a swab from the reconstructed tympanic membrane and the ear channel was sterile. Subsequently, the oozing ear channel was treated one time daily for two days by instillation of 2 mL of aqueous 1% NCT solution. […] The complete epithelization was achieved 3 days earlier than by the conventional treatment with fuchsine.
A human patient suffering from a perforation of the tympanic membrane caused by a chronic inflammation of the middle ear received tympanoplasty. After removing incrustations and granulation tissue, the destroyed tympanic membrane was excised and substituted by a fascia temporalis. After taking away the tamponade, the microbiological culture of a swab from the reconstructed tympanic membrane and the ear channel was sterile. Subsequently, the oozing and swollen ear channel was treated one time daily for five days by instillation of 2 mL of aqueous 1% NCT solution. […] The complete epithelization was achieved 3 days earlier than by the conventional treatment with fuchsine.

The nature of series [3]: pH of aqueous solutions of NCT. Type of series: physicochemical. How it is done:
as §1

Setting [4] is: 3 ml 1% NCT once daily, score zero = dry outer ear canal.
The mark [5] stands for this setting: Example 1: person, 2 mL aqueous 1% NCT one time daily for two days.
The mark [6] stands for this setting: Example 2: person, 2 mL aqueous 1% NCT one time daily for five days.

`O=S(=O)(O)CCNCl` [NCT, N-chlorotaurine]: in series [1], the healing process entry is “went on without problems” and the “treatment time until the fibrous coating disappeared” value is listed as “three”. Moreover, in the series on outer ear canal (3 ml 1% NCT once daily), the dizziness or nystagmus result is given as “No dizziness or nystagmus occurred”, the “drying of the outer ear canal” value is “Rapid drying of the outer ear canal was detected in all patients”, the “epithelisation of the new tympanon on ear microscopy” value is recorded as “proceeded regularly without granulation” and the “infection in the postoperative course” value is “No infection occurred”. For the same compound, in the series with outer ear canal (3 ml 1% NCT once daily), the “time needed for complete epithelisation (mean±SD)” value turned out to be 22.6 ± 3.5 days, the “time needed for complete epithelisation (range)” value was in the range of 18 to 31 days and the tolerability of treatment result was “tolerated very well by all patients”. The “average clinical score (0-5) of the outer ear canal” value in the series with outer ear canal (3 ml 1% NCT once daily, days 2-5 vs. baseline day 1, Wilcoxon test) was “decreased daily”. In the series on outer ear canal (setting [4]), the “necessary time for achieving a score of zero (mean±SD)” value is 2.75 ± 0.87 days and the “necessary time for achieving a score of zero (range)” value was 2 to 5 days. The subjective pain entry in the series with outer ear canal (3 ml 1% NCT once daily, visual analogue scale) is “without occurrence of any pain”. Moreover, in the series on outer ear canal (audiogram before and after treatment), the “damage to the inner ear” value is recorded as “no signs of damage to the inner ear”. In the series with outer ear canal (whole period of treatment), the allergic reactions entry is recorded as “no signs of allergic reactions”. In series [2], the “stability of solutions on storage” value was 1 year. For the same compound, the “time until oozing ceased” value in the series with oozing ear channel (Example 1: person, 2 mL aqueous 1% NCT instilled one time daily for two days) was “one”. In addition, in the series on oozing ear channel (setting [5]), the “complete epithelization achieved earlier than by the conventional treatment with fuchsine” value is on record as 3 days and the “incorporation of the temporal fascia” value is “proceeded without problems”. Besides, in the series with oozing ear channel (Example 2: person, 2 mL aqueous 1% NCT instilled one time daily for five days), the “time until oozing ceased” value is recorded as “three”. In the series with oozing ear channel (setting [6]), the “complete epithelization achieved earlier than by the conventional treatment with fuchsine” value stood at 3 days and the “incorporation of the temporal fascia” value is on record as “proceeded without problems”. Also, the “drying of the ear channel and the tympanoplastic” value with oozing ear channel (rinsing the ear channel with NCT solution, in general) is 1 to 2 days. Further, the pH in series [3] worked out at 8.
